US20080114047A1 (priority 2003, published 2008)
Several values for one entry are separate records, joined by “and”; a condition that tells them apart may be missing. Equal values may be shown once. Read-outs that look alike come from different tables or passages of the source.

What was measured:
[1] = system: Trypanosoma brucei rhodesiense; test: Anti-protozoan data: T.b.r. IC50; type: cell-based; conditions: read-out: T.b.r. IC50
DNA = DNA binding ΔTm; conditions: Tables VI(a), VI(c)
Trypanosoma cruzi = test: Anti-protozoan data: T. cruzi IC50; type: cell-based; conditions: read-out: T. cruzi IC50
J774 macrophages = test: Toxicity against J774 macrophages (IC50); type: cell-based; conditions: Mus musculus, Tables I-III, V
[2] = system: Mycobacterium tuberculosis; test: Compounds tested against Mycobacterium tuberculosis (MIC90); type: cell-based; conditions: read-out: M. tb. MIC90
[3] = system: L. donovani axenic amastigotes; test: In vitro anti-leishmania activity (IC50 vs. L. donovani axenic amastigotes); type: cell-based; conditions: for IC50: Leishmania donovani; for selectivity for axenic amastigotes over J774 macrophages (fold more active against the parasites compared to the mammalian host cells): L. donovani vs. J774 macrophages
Plasmodium falciparum = test: Anti-protozoan data: P. falcip. IC50; type: cell-based; conditions: read-out: P. falcip. IC50
Candida albicans = test: Anti-fungal data: Candida albicans; type: cell-based; conditions: for MFC / MIC80: strain A39; for MIC: strain A39, read-out: Candida albicans (A39) MIC100
Aspergillus fumigatus = test: Anti-fungal data: Aspergillus fumigatus; type: cell-based; conditions: for MIC: strain DUMC 168.95, read-out: Aspergillus. Fumigatus (DUMC 168.95) MIC100
Cryptococcus neoformans = test: Anti-fungal data: Cryptococcus neoformans; type: cell-based; conditions: for MFC / MIC80: strain H99; for MIC: strain H99, read-out: Cryptococcus neoformans (H99) MIC100
[4] = axenic amastigotes, Tables I-V, read-out: IC50 vs. L. donovani
[5] = Tables VI(a), VI(c), read-out: Leishmania donovani IC50

Row | Compound | IC50 (in vitro) [µM] | IC50 (J774 macrophages) [µM] | MIC90 [2] | IC50 [3, 4] [µM] | MFC (Candida albicans) [µg/mL] | MIC80 (Candida albicans) [µg/mL] | MIC (Candida albicans) [µg/mL] | melting point [°C] | MIC80 (Aspergillus fumigatus; strain DUMC 168.95) [µg/mL] | MIC (Aspergillus fumigatus) [µg/mL] | IC50 ([1]; Tables VI(a), VI(c)) [µM] | IC50 (Trypanosoma cruzi; Tables VI(a), VI(c)) [µM] | IC50 [3, 5] [µM] | IC50 (Plasmodium falciparum; Tables VI(a), VI(c)) [µM] | also measured
1 | Cl.Cl.N=C(N)c1ccc(OCCCOc2ccc(-c3cc4cc(C(=N)N)ccc4o3)cc2)cc1 [Compound 44, 2-(4-(3-(4-Carbamimidoylphenoxy)propoxy)phenyl)benzofuran-5-carboxamidine dihydrochloride] | 7.32 | 2.7 ± 0.3 | 0.45 µg/mL and 0.86 µM | 0.78 ± 0.21 | 10 | ≤ 1 | ≤ 1 | 287 to 289 | 10 | > 100 |  |  |  |  | IC50 [1]: 0.451 µM; DNA binding Δ Tm (DNA): 18.7; IC50 (Trypanosoma cruzi): 16.9 µM; IC50 (Plasmodium falciparum): 0.0414 µM
2 | N=C(N)c1ccc(OCCCCCOc2ccc(C(=N)N)cc2)cc1 [Pentamidine, pentamidine, reference compound] |  | 23 ± 6 |  | 2 ± 0.6 |  |  |  |  |  |  |  |  |  |  | 
3 | Cl.Cl.N=C(N)c1ccc(OCCCCCOc2cccc(-c3cc4ccc(C(=N)N)cc4o3)c2)cc1 [Compound 62, 2-(3-(5-(4-Carbamimidoylphenoxy)pentyloxy)phenyl)benzofuran-6-carboxamidine dihydrochloride] | 4.12 | 5.6 ± 0.3 | 0.65 µg/mL and 1.15 µM | 5.75 ± 0.06 | 1.56 | 0.39 | 0.39 | 178 to 182 | 1.56 | 3.12 | 0.531 | 8.56 | 5.75 ± 0.06 | 0.282 | MFC (Cryptococcus neoformans): 0.78 µg/mL; MIC80 (Cryptococcus neoformans): 0.39 µg/mL; MIC (Cryptococcus neoformans): 0.39 µg/mL; MFC (Aspergillus fumigatus; strain DUMC 168.95): > 100 µg/mL
4 | Cl.Cl.N=C(N)c1ccc(OCCCCOc2cccc(-c3cc4ccc(C(=N)N)cc4o3)c2)cc1 [Compound 59, 2-(3-(4-(4-Carbamimidoylphenoxy)butoxy)phenyl)benzofuran-6-carboxamidine dihydrochloride] | 7.57 | 11 ± 2 |  | 5.93 ± 0.24 |  |  |  | 278 to 280 |  |  | 1.33 |  | 5.93 ± 0.24 | 0.321 | 
5 | CC(C)NC(=N)c1ccc(OCCCOc2ccc(-c3cc4ccc(C(=N)NC(C)C)cc4o3)cc2)cc1.Cl.Cl [Compound 69, 2-(4-(3-(4-(N-Isopropylcarbamimidoyl)phenoxy)propoxy)phenyl)-N-isopropylbenzofuran-6-carboxamidine dihydrochloride] | 49.9 | 9.9 ± 1.7 | 0.54 µg/mL and 0.92 µM | 3.18 ± 0.19 |  |  |  | 266 to 270 |  |  | 0.0881 | 28.4 | 3.18 ± 0.19 | 0.0366 | 
6 | CC(C)NC(=N)c1ccc(OCCCCCCOc2ccc(-c3cc4ccc(C(=N)NC(C)C)cc4o3)cc2)cc1.Cl.Cl [Compound 78, 2-(4-(6-(4-(N-Isopropylcarbamimidoyl)phenoxy)hexyloxy)phenyl)-N-isopropylbenzofuran-6-carboxamidine dihydrochloride] | 4.9 | 0.73 ± 0.03 | 2.11 µg/mL and 3.33 µM | 2.62 ± 0.35 |  |  |  | 264 to 268 |  |  | 0.884 | 3.48 | 2.62 ± 0.35 | 0.0519 | 
7 | Cl.Cl.N=C(N)c1ccc2oc(CCc3cc4cc(C(=N)N)ccc4o3)cc2c1 [Compound 8, 2-(2-(5-Amidinobenzofuran-2-yl)ethyl)benzofuran-5-carboxamidine dihydrochloride] | 21.5 | 15 ± 1 | 5.15 µg/mL and 11.6 µM | 1.06 ± 0.18 | 100 | 100 | 100 |  | > 100 | > 100 | 0.0079 | 12.3 | 1.06 ± 0.18 | 0.0025 | DNA binding Δ Tm (DNA): 6.1; MFC (Cryptococcus neoformans): 100 µg/mL; MIC80 (Cryptococcus neoformans): 100 µg/mL; MIC (Cryptococcus neoformans): 100 µg/mL; selectivity for axenic amastigotes over J774 macrophages (fold more active against the parasites compared to the mammalian host cells) [3]: 14 fold
8 | Cl.Cl.N=C(N)c1ccc(OCCCCCOc2cccc(-c3cc4cc(C(=N)N)ccc4o3)c2)cc1 [Compound 38, 2-(3-(5-(4-Carbamimidoylphenoxy)pentyloxy)phenyl)benzofuran-5-carboxamidine dihydrochloride] | 3.02 |  | 1.96 µg/mL and 3.48 µM |  | 12.5 | 0.78 | 6.25 | 165 to 168 | 50 | > 100 | 0.863 | 7.78 | 10.5 ± 2.11 | 0.428 | DNA binding Δ Tm (DNA): 21.1; MFC (Cryptococcus neoformans): 3.12 µg/mL; MIC80 (Cryptococcus neoformans): 0.39 µg/mL; MIC (Cryptococcus neoformans): 0.781 µg/mL
9 | CC(C)NC(=N)c1ccc(OCCCCCOc2ccc(-c3cc4ccc(C(=N)NC(C)C)cc4o3)cc2)cc1.Cl.Cl [Compound 75, 2-(4-(5-(4-(N-Isopropylcarbamimidoyl)phenoxy)pentyloxy)phenyl)-N-isopropylbenzofuran-6-carboxamidine dihydrochloride] | 10.7 | 2.7 ± 0.1 | 1.19 µg/mL and 1.92 µM | 1.38 ± 0.18 |  |  |  | 255 to 257 |  |  | 0.557 | 8.92 | 1.38 ± 0.18 | 0.0744 | 
10 | Cl.Cl.c1cc(C2=NCCN2)ccc1OCCCOc1ccc(-c2cc3ccc(C4=NCCN4)cc3o2)cc1 [Compound 70, 2-(2-(4-(3-(4-(4,5-Dihydro-1H-imidazol-2-yl)phenoxy)propoxy)phenyl)benzofuran-6-yl)-4,5-dihydro-1H-imidazole dihydrochloride] | 16.8 | 2.4 ± 0.1 | 0.86 µg/mL and 1.5 µM | 0.48 ± 0.16 |  |  |  | 283 to 284 |  |  | 0.144 | 7.11 | 0.48 ± 0.16 | 0.0418 | selectivity for axenic amastigotes over J774 macrophages (fold more active against the parasites compared to the mammalian host cells) [3]: 5 fold
11 | Cl.Cl.c1cc(OCCCOc2ccc(C3=NCCN3)cc2)cc(-c2cc3cc(C4=NCCN4)ccc3o2)c1 [Compound 34, 2-(2-(3-(3-(4-(4,5-Dihydro-1H-imidazol-2-yl)phenoxy)propoxy)phenyl)benzofuran-5-yl) -4,5-dihydro-1H-imidazole dihydrochloride] | 6.52 | 7.1 ± 0.8 |  | 5.93 ± 0.04 |  |  |  | 193 to 197 |  |  | 1.17 |  | 5.93 ± 0.04 | 0.108 | 
12 | Cl.Cl.N=C(N)c1ccc(OCCCCCCOc2ccc(-c3cc4cc(C(=N)N)ccc4o3)cc2)cc1 [Compound 53, 2-(4-(6-(4-Carbamimidoylphenoxy)hexyloxy)phenyl)benzofuran-5-carboxamidine dihydrochloride] | 3.29 | 0.6 ± 0.07 | 3.74 µg/mL and 6.84 µM | 0.65 ± 0.17 | 3.12 | 1.56 | 3.12 | 310 to 311 | 12.5 | > 100 | 0.368 | 6.21 | 0.65 ± 0.17 | 0.263 | MFC (Cryptococcus neoformans): 6.25 µg/mL; MIC80 (Cryptococcus neoformans): 1.56 µg/mL; MIC (Cryptococcus neoformans): 3.12 µg/mL
13 | Cl.Cl.N=C(N)c1ccc(OCCCCOc2ccc(-c3cc4ccc(C(=N)N)cc4o3)cc2)cc1 [Compound 71, 2-(4-(4-(4-Carbamimidoylphenoxy)butoxy)phenyl)benzofuran-6-carboxamidine dihydrochloride] | 14.1 | 0.86 ± 0.2 | 0.45 µg/mL and 0.85 µM | 3.22 ± 0.96 |  |  |  | 324 to 325 |  |  | 1.06 | 12.5 | 3.22 ± 0.96 | 0.166 | 
14 | Cl.Cl.N=C(N)c1ccc(OCCCCOc2cccc(-c3cc4cc(C(=N)N)ccc4o3)c2)cc1 [Compound 35, 2-(3-(4-(4-Carbamimidoylphenoxy)butoxy)phenyl)benzofuran-5-carboxamidine dihydrochloride] | 8.06 | 9.6 ± 1.5 |  | 4.45 ± 1.93 |  |  |  | 284 to 286 |  |  | 0.779 |  | 4.45 ± 1.93 | 0.0755 | 
